# Test results published in US20260274922A1, “SYNTHETIC ESTROGEN RECEPTOR (ER)-DERIVED PEPTIDE” (THE TEXAS A&M UNIVERSITY SYSTEM, priority 2023, published 2026).
# Where no end group is shown, it is not given here. The star is where a group is joined. FITC = O=C1OC2(c3ccc(O)cc3Oc3cc(O)ccc32)c2ccc(NC(=S)*)cc21
# Experiments:
# IRS1 = target: T1, IRS1 (Mus musculus, UniProt P35569); test: Effect of AF1 peptide on IRS1 phosphorylation at S302 in primary mouse hepatocytes (Western blot); format: cell-based; details: WT primary hepatocytes
# T1 construct: increased IRS1 protein levels by 50% (p<0.05) in WT primary hepatocytes; endogenous in cells; host or cells: primary mouse hepatocytes (C57BL/6J background; WT, ERα F/F or ERα LivKO)
# T1 sequence (P35569 1-1233): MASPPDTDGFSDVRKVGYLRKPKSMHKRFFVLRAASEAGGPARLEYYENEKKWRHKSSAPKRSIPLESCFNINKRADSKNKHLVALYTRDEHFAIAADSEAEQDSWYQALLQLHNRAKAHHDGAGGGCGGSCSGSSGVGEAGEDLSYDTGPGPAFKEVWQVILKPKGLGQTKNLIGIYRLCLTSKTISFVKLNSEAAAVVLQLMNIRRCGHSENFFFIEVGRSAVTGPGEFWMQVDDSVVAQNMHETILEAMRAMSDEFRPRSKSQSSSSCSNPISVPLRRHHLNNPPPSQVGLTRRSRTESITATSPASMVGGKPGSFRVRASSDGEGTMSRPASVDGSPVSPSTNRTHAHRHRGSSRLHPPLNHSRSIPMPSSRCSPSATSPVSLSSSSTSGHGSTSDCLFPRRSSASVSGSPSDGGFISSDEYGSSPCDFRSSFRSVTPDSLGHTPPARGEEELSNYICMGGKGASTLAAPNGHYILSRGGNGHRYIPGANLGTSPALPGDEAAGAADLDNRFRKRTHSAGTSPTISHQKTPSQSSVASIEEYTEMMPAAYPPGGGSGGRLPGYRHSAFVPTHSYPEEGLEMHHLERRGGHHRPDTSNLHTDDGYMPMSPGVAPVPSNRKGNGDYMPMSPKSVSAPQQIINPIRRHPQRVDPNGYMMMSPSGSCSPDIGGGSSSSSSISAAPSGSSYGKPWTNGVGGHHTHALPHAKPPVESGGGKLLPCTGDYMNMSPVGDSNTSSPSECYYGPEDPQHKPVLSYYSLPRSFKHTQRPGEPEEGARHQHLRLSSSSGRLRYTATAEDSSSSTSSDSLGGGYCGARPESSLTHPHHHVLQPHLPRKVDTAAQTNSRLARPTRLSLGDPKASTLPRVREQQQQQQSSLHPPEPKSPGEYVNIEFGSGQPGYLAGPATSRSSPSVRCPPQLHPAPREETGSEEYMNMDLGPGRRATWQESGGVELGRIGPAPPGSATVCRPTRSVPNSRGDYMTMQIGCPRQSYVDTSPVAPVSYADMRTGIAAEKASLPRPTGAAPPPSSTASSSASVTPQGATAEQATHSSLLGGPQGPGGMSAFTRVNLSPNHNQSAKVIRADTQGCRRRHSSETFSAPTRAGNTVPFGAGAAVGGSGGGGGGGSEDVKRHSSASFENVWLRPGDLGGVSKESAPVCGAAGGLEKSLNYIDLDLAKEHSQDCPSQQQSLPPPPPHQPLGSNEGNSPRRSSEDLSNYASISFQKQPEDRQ
# Experimental: Primary hepatocytes isolation and cell culture. Primary hepatocytes were isolated. Male mice at age of 8-12 weeks were infused with a perfusion buffer A (calcium and magnesium-free HBSS supplemented with 10 mM HEPES, […], 1 mM glucose, and 1% penicillin-streptomycin, pH 7.4) through portal vein for 6-8 min. Then perfusion buffer A was changed to buffer B (calcium and magnesium-free HBSS supplemented with 10 mM HEPES, 1 mM CaCl2), 1 mM glucose, 1% penicillin-streptomycin, and 0.5 mg/mL collagenase II, pH 7.4). […] Liver cells were suspended and passed through a 70 μm cell strainer, followed by centrifuge at 1700 rpm for 2 min. Pellets were resuspended with Percoll at final concentration of 36% and centrifuged at 1800 rpm for 6 min. The hepatocyte pellet was washed and suspended with DMEM supplemented with 10% FBS and 1% penicillin-streptomycin in collagen-coated plates. The HepG2 cell line was purchased from Abcam and cultured with DMEM medium supplemented with 10% FBS and 1% penicillin-streptomycin in collagen-coated plates. The human embryo kidney (HEK) 293 cell line was purchased from Sigma and cultured with DMEM medium supplemented with 10% FBS and 1% penicillin-streptomycin. FBS-free DMEM medium was used to culture cells during the experiments.
# (§1) Co-immunoprecipitation and Western blotting analysis. […] Protein bands were detected using a ChemiDoc image system.
# DKO male mice = test: AF1 peptide treatment of liver-specific IRS1 and IRS2 knockout (DKO) mice; format: in vivo, mouse
# Experimental: Animal studies. All animal experiments were performed following procedures approved by the Texas A&M University Institutional Animal Care and Use Committee. Mice are housed at 22-24° C. and maintained on a 12 h light/12 h dark cycle with a standard chow diet (58% calories from carbohydrate, 18% from fat, and 24% from protein, 3.1 kcal/g, with a reduced phytoestrogen content; Teklad Diet) ad libitum. Liver-specific ERα (ERα^LivKO) or ERβ (ERβ^LivKO) knockout mice were generated by crossing ERα or ERβ flox mice (gift from Dr. Yong Xu, Baylor College of Medicine) with Albumin-Cre mice purchased from The Jackson Laboratory (Strain #003574), respectively. Liver IRS1 and IRS2 double knockout (DKO) mice were generated by breeding IRS1 and IRS2 flox (IRS1^L/L::IRS2^L/L) mice with Albumin-Cre mice. Liver IRS1, IRS2, and ERα triple knockout (TKO) mice were generated by crossing DKO mice with ERα^LivKO mice. All mice were on C57B/6J background. Db/db mice were purchased from The Jackson Laboratory (Strain #000697). Female mice at age of 2-month-old underwent a bilateral ovariectomy (OVX) surgery; these mice were used to perform experiments 4 weeks after OVX surgery. All the mice experiments were performed with age- and gender-matched mice with their health status examined daily by the investigators and technicians from Texas A&M University LARR Animal Facility. Littermate controls were used if possible.
# Glucose and insulin tolerance tests. For glucose tolerance tests, mice were fasted for 16 h and intraperitoneally (i.p.) injected with dextrose (1 g/kg body weight for mice fed with regular diet; 0.5 g/kg body weight for db/db mice or mice fed with HFD). For insulin tolerance tests, mice were fasted for 6 h and i.p. injected with insulin solution (1 U/kg body weight for male mice; 0.75 U/kg body weight for female mice). Blood glucose levels were measured using glucometer at indicated time points.
# as §1
sequence,measurement,setting,value
YGRKKRRQRRRTKASGMALLHEPLNRPQLKIPLERDSSKPAVYNY ({FITC}-YGRKKRRQRRRTKASGMALLHEPLNRPQLKIPLERDSSKPAVYNY) [AF1 peptide],decrease in pIRS1-S302,IRS1,75%
same,increase in IRS1 protein levels,IRS1; FIG. 6G,50%
same,glucose homeostasis,DKO male mice; glucose tolerance test,significantly improved
same,insulin sensitivity,DKO male mice; insulin tolerance test,significantly improved
same,insulin-induced AKT phosphorylation in the liver,DKO male mice; liver,could not be rescued
same,insulin-stimulated AKT phosphorylation in skeletal muscle and eWAT,DKO male mice; skeletal muscle and epididymal white adipose tissue,partially improved
